Measurements as given in patent US9884063B2, “Amido-substituted azole compounds” (Bayer Pharma Aktiengesellschaft, priority 2014, dated 2018).
pIC50: −log10 of the molar value.

Legend:
[1] = molecular target: T1, TNKS2 (Homo sapiens, UniProt Q9H2K2); experiment: Modified TNKS2 Assay 3 (BPS kit #80578, biotin-NAD+, 96 well); format: biochemical; conditions: human TNKS2, BPS kit #80578, 96 well
T1 sequence (Q9H2K2 1-1166): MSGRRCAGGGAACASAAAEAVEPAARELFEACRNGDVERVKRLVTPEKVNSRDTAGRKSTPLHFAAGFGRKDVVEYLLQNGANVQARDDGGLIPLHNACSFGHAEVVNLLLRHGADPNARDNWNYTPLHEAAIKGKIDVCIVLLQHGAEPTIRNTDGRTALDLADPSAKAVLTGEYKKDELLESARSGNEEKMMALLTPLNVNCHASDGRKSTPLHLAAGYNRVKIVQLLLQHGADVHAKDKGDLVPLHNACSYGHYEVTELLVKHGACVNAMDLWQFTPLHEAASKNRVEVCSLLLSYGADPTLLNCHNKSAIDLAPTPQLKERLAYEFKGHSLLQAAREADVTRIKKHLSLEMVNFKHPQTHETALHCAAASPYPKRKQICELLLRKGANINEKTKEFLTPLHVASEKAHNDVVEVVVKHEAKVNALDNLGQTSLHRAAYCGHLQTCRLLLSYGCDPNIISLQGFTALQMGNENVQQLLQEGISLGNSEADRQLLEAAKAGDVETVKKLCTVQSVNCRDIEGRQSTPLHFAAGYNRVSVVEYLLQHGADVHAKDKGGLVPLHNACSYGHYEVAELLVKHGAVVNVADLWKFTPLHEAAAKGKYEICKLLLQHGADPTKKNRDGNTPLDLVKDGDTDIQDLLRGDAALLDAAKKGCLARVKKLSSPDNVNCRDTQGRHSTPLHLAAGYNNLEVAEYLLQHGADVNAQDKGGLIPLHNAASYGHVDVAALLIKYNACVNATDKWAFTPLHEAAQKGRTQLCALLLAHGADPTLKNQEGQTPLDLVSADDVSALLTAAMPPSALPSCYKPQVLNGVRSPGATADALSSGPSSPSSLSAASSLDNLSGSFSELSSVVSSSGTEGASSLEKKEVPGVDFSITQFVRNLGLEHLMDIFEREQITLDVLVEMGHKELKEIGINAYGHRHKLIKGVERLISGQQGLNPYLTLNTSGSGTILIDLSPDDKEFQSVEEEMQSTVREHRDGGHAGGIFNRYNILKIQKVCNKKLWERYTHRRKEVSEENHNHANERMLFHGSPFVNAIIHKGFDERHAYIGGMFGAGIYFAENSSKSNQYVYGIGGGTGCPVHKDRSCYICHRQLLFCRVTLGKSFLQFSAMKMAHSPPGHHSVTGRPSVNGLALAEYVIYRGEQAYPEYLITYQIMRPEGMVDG
Description: The potency of the compounds against human TNKS2 according to the invention was assessed using a commercially available biotin/streptavidin binding assay kits from BPS Bioscience, San Diego, USA (Catalog #80578 for TNKS2). The incorporation of a biotin-labeled NAD+ during the […] catalyzed ribosylation of a suitable protein substrate was detected using with a streptavidin-HRP coupled chemi-luminescent readout. The intensity of the readout signal is proportional to the incorporated NAD^+. Inhibition of TNKS2 leads to a decreased incorporation of NAD^+ and consequently to a lower readout signal intensity in the corresponding TNKS2 assays. The concentration of a test compound that inhibits the enzyme activity by 50% (corresponds to half of the normed readout signal intensity) is reported as IC50. The assay conducted in a 96 well MTP format according to the manufacturer's protocol and using a BMG Pherastar MTP reader [BMG-Labtech, Offenburg, Germany].

[2] = tested on: wildtype Wnt signaling cascade; experiment: HEK293 TOP Assay (Super TopFlash luciferase reporter, Wnt-3a stimulated); format: cell-based; conditions: Homo sapiens, HEK293, 16 h, HEK293 TOP reporter cell line, Wnt-3a at EC50, 16 hours incubation, compound dilution series 50 μM to 15 nM
Summary of the method: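 Compounds (50 μM down to 15 nM, 3.16-fold steps, in CAFTY buffer pH 7.4, 2 mM Ca2+, 0.01% BSA) tested in parallel on TOP and FOP HEK293 reporter lines to define selective wildtype Wnt inhibition. Pathway driven by recombinant human Wnt-3a applied at 2500–5 ng/ml in two-fold dilutions.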

[3] = tested on: HEK293 FOP control reporter cell line; experiment: HEK293 FOP Assay (FOP control vector luciferase reporter); format: cell-based; conditions: Homo sapiens; HEK293 FOP control reporter cell line, 16 hours incubation, compound dilution series 50 μM to 15 nM
Summary of the method: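 Compound series 50 μM to 15 nM, 3.16-fold steps, were diluted in CAFTY buffer (pH 7.4, 2 mM Ca2+, 0.01% BSA) and tested alongside the TOP reporter line. Human Wnt-3a was added at 2500–5 ng/ml in two-fold steps. The control HEK293 line stably holds an FOP vector whose TCF elements are randomized and non-functional.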

Q: How did the pIC50 [1] turn out when `CC1CCCCN1CCNC(=O)c1[nH]cnc1C(=O)Nc1ccc(NC(=O)c2ccccc2Cl)cc1` (stereo not shown) [Example 153, N^4-{4-[(2-chlorobenzoyl)amino]phenyl}-N^5-[2-(2-methylpiperidin-1-yl)ethyl]-1H-imidazole-4,5-dicarboxamide] was run?
A: Its pIC50 is 8.30.

Q: And the pIC50 [2]?
A: The pIC50 was 6.72.

Q: What about the pIC50 [3] of the same compound?
A: Its pIC50 is 4.46.

Q: How did the pIC50 [1] turn out when `CC(CN1CCOCC1)NC(=O)c1[nH]cnc1C(=O)Nc1ccc(NC(=O)c2ccccc2Cl)cc1` (stereo not shown) [Example 162, N^4-{4-[(2-chlorobenzoyl)amino]phenyl}-N^5-[1-(morpholin-4-yl)propan-2-yl]-1H-imidazole-4,5-dicarboxamide] was run?
A: Its pIC50 is 7.70.

Q: What about the pIC50 [2] of the same compound?
A: Its pIC50 is 6.57.

Q: How did the pIC50 [1] turn out when `CC1CCN(CCNC(=O)c2[nH]cnc2C(=O)Nc2ccc(NC(=O)c3ccccc3Cl)cc2)CC1` [Example 163, N^4-{4-[(2-chlorobenzoyl)amino]phenyl}-N^5-[2-(4-methylpiperidin-1-yl)ethyl]-1H-imidazole-4,5-dicarboxamide] was run?
A: Its pIC50 is 8.00.

Q: What about the pIC50 [2] of the same compound?
A: The pIC50 was 7.00.

Q: And the pIC50 [3]?
A: Its pIC50 is 4.43.

Q: What does the source list for `O=C(Nc1ccc(NC(=O)c2nc[nH]c2C(=O)NCCN2CCCC2)cc1)c1ccccc1Cl` [Example 168, N^4-{4-[(2-chlorobenzoyl)amino]phenyl}-N^5-[2-(pyrrolidin-1-yl)ethyl]-1H-imidazole-4,5-dicarboxamide]?
A: pIC50 [1]: > 9.30; pIC50 [2]: 7.10; pIC50 [3]: 4.57

Q: `CC(CNC(=O)c1[nH]cnc1C(=O)Nc1ccc(NC(=O)c2ccc(F)cc2Cl)cc1)N1CCCCC1` (stereo not shown) [Example 170, N^4-{4-[(2-chloro-4-fluorobenzoyl)amino]phenyl}-N^5-[2-(piperidin-1-yl)propyl]-1H-imidazole-4,5-dicarboxamide] was tested. Which pIC50 [1] did it give?
A: The pIC50 was 8.70.

Q: And the pIC50 [2]?
A: The pIC50 was 6.74.

Q: `CC(CNC(=O)c1[nH]cnc1C(=O)Nc1ccc(NC(=O)c2ccc(F)cc2Cl)cc1)N1CCN(C)CC1` (stereo not shown) [Example 185, N^4-{4-[(2-chloro-4-fluorobenzoyl)amino]phenyl}-N^5-[2-(4-methylpiperazin-1-yl)propyl]-1H-imidazole-4,5-dicarboxamide] was tested. Which pIC50 [1] did it give?
A: The pIC50 was 7.70.

Q: What about the pIC50 [2] of the same compound?
A: Its pIC50 is 6.70.

Q: `O=C(Nc1ccc(NC(=O)c2nc[nH]c2C(=O)NCCN2CCC2)cc1)c1ccccc1Cl` [Example 190, N^5-[2-(azetidin-1-yl)ethyl]-N4-{4-[(2-chlorobenzoyl)amino]phenyl}-1H-imidazole-4,5-dicarboxamide] was tested. Which pIC50 [1] did it give?
A: The pIC50 was 8.70.

Q: And the pIC50 [2]?
A: Its pIC50 is 6.72.

Q: What about the pIC50 [3] of the same compound?
A: Its pIC50 is 4.74.

Q: `CC1CCCCN1CCNC(=O)c1[nH]cnc1C(=O)Nc1ccc(NC(=O)c2ccc(F)cc2Cl)cc1` (stereo not shown) [Example 191, N^4-{4-[(2-chloro-4-fluorobenzoyl)amino]phenyl}-N^5-[2-(2-methylpiperidin-1-yl)ethyl]-1H-imidazole-4,5-dicarboxamide] was tested. Which pIC50 [1] did it give?
A: Its pIC50 is 8.70.

Q: What about the pIC50 [2] of the same compound?
A: The pIC50 was 7.40.

Q: And the pIC50 [3]?
A: The pIC50 was 4.51.

Q: What does the source list for `O=C(Nc1ccc(NC(=O)c2nc[nH]c2C(=O)NCCCCN2CCCCC2)cc1)c1ccc(F)cc1Cl` [Example 196, N^4-{4-[(2-chloro-4-fluorobenzoyl)amino]phenyl}-N^5-[4-(piperidin-1-yl)butyl]-1H-imidazole-4,5-dicarboxamide]?
A: pIC50 [1]: 7.70; pIC50 [2]: 6.19; pIC50 [3]: 4.52

Q: How did the pIC50 [1] turn out when `O=C(Nc1ccc(NC(=O)c2nc[nH]c2C(=O)NCCN2CCC(O)CC2)cc1)c1ccccc1Cl` [Example 197, N^4-{4-[(2-chlorobenzoyl)amino]phenyl}-N^5-[2-(4-hydroxypiperidin-1-yl)ethyl]-1H-imidazole-4,5-dicarboxamide] was run?
A: Its pIC50 is 9.00.

Q: And the pIC50 [2]?
A: Its pIC50 is 6.85.

Q: How did the pIC50 [1] turn out when `O=C(Nc1ccc(NC(=O)c2nc[nH]c2C(=O)NCCN2CCC2)cc1)c1ccc(F)cc1Cl` [Example 198, N^5-[2-(azetidin-1-yl)ethyl]-N^4-{4-[(2-chloro-4-fluorobenzoyl)amino]phenyl}-1H-imidazole-4,5-dicarboxamide] was run?
A: Its pIC50 is > 9.30.

Q: And the pIC50 [2]?
A: Its pIC50 is 6.96.

Q: How did the pIC50 [1] turn out when `O=C(Nc1ccc(NC(=O)c2nc[nH]c2C(=O)NCCCN2CCOCC2)cc1)c1ccc(F)cc1Cl` [Example 204, N^4-{4-[(2-chloro-4-fluorobenzoyl)amino]phenyl}-N^5-[3-(morpholin-4-yl)propyl]-1H-imidazole-4,5-dicarboxamide] was run?
A: The pIC50 was 7.70.

Q: What about the pIC50 [2] of the same compound?
A: The pIC50 was 6.51.

Q: What about the pIC50 [3] of the same compound?
A: The pIC50 was 4.46.

Q: `O=C(Nc1ccc(NC(=O)c2nc[nH]c2C(=O)NCCN2CCCC(O)C2)cc1)c1ccc(F)cc1Cl` (stereo not shown) [Example 229, N^4-{4-[(2-chloro-4-fluorobenzoyl)amino]phenyl}-N^5-[2-(3-hydroxypiperidin-1-yl)ethyl]-1H-imidazole-4,5-dicarboxamide] was tested. Which pIC50 [1] did it give?
A: Its pIC50 is 8.40.

Q: What about the pIC50 [2] of the same compound?
A: The pIC50 was 6.96.

Q: What about the pIC50 [3] of the same compound?
A: Its pIC50 is 4.35.

Q: `CN1CCN(CCNC(=O)c2[nH]cnc2C(=O)Nc2ccc(NC(=O)c3ccc(F)cc3Cl)cc2)CC1` [Example 238, N^4-{4-[(2-chloro-4-fluorobenzoyl)amino]phenyl}-N^5-[2-(4-methylpiperazin-1-yl)ethyl]-1H-imidazole-4,5-dicarboxamide] was tested. Which pIC50 [1] did it give?
A: Its pIC50 is 8.70.

Q: What about the pIC50 [2] of the same compound?
A: The pIC50 was 6.74.

Q: What about the pIC50 [3] of the same compound?
A: The pIC50 was 4.54.
